Assay results taken from patent US20090176817A1, “Method of Treatment of Diarrhea-Predominant Irritable Bowel Syndrome in a Subject” (priority 2005, published 2009).

Tests used:
[1] = Study S241.1.111: relative bioavailability and food effect, 2 mg tablet vs oral solution; type: in vivo, human; settings: human, in vivo; for AUC(0-inf) / AUC(0-t) / Cmax / Tmax / half-life: both sexes; for AUC(0-t): AUC(0-last); for half-life: T½
Experimental: Subjects were randomized to receive a cilansetron 2 mg tablet after an overnight fast, a cilansetron 2 mg tablet after a high-fat breakfast, and a cilansetron 2 mg oral solution after an overnight fast during the three treatment periods, with a 7-day washout between periods. Serial blood sampling was performed up to 24 hours following each treatment, and plasma pharmacokinetics parameters for cilansetron and its metabolites, (4R)-hydroxy cilansetron and (4S)-hydroxy cilansetron, were estimated. FIG. 4, FIG. 5, and FIG. 6 present mean plasma concentration-time profiles for cilansetron and its metabolites following treatment with the cilansetron tablet and oral solution. Table 2.7.1.2.2 presents descriptive statistics for the pharmacokinetic parameters of cilansetron and its metabolites for the tablet and oral solution, and the results of statistical comparisons between treatments (tablet versus solution).
Subjects were randomized to receive a cilansetron 2 mg tablet after an overnight fast, a cilansetron 2 mg tablet after a high-fat breakfast, and a cilansetron 2 mg oral solution after an overnight fast during the three treatment periods, with a 7-day washout between periods. Serial blood sampling was performed up to 24 hours following each treatment and plasma pharmacokinetics parameters for cilansetron and its metabolites, (4R)-hydroxy cilansetron and (4S)-hydroxy cilansetron, were estimated. FIG. 7, FIG. 8, and FIG. 9 present mean plasma concentration-time profiles for cilansetron and its metabolites following treatment with the cilansetron tablet under fasted conditions and following a high-fat meal. Table 2.7.1.2.4 presents descriptive statistics for the pharmacokinetic parameters of cilansetron and its metabolites for the tablet under fed and fasted conditions, and the results of statistical comparisons between treatments (fed versus fasted).

human 5-HT3 receptor = biological target: T1, human 5-HT3 receptor (Homo sapiens, UniProt P46098); assay: 5-HT3 receptor binding
T1 sequence (P46098 24-478): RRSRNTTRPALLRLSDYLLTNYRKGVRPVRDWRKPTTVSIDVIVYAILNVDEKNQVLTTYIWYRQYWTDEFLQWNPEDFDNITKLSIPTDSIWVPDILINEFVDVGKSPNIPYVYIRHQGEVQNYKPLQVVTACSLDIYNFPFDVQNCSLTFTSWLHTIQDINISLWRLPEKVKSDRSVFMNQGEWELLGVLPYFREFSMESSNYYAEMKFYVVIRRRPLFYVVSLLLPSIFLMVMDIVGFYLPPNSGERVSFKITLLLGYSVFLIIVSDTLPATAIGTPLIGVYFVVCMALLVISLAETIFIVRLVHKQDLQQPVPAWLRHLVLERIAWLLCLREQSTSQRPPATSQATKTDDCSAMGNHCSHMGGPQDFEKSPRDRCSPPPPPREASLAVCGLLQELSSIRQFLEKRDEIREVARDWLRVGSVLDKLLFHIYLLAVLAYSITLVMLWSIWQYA

[2] = Study S.241.2.112: population pharmacokinetics (NONMEM) in IBS patients; type: in vivo, human; settings: human, in vivo; for half-life: both sexes
Experimental: The pharmacokinetics and pharmacodynamics of cilansetron following multiple oral administration in non-constipated IBS patients have been examined in a population pharmacokinetic (NONMEM) analysis of a Phase II trial. The study was a double-blind, placebo-controlled, randomized, multi-center, parallel-group, dose ranging study to investigate the Efficacy and safety of four different doses of cilansetron (1 mg, 2 mg, 8 mg, and 16 mg TID) in patients with established IBS (non-constipated patients who suffered from IBS according to the Rome Criteria and were not bothered by constipation for >25% of their IBS episodes). The study was to be performed in approximately 50 centers. A sufficient number of patients were to be recruited to insure that at least 88 patients per treatment group were evaluable for efficacy and to get a total of 440 completers. […] There were interim assessments at the end of the 4th week (Visit 3; Day 29) and 8th week (Visit 4; Day 57) and a final assessment at the end of the 12th week (Visit 5; poststudy). Single blood samples for population pharmacokinetic analyses were drawn at Visits 3, 4, 5 or early termination, at 31 of the participating sites. With the exception of Visit 3, the timing of the blood draw in relation to the previous dose was not specified for any of the samples collected, but the time of sampling and the time of last dosing was recorded for each sample collected. For Visit 3, the blood sample had to be taken between 15 minutes and 2 hours of the morning or midday dose.
Various covariates were screened during development of the population pharmacokinetic model, including age, height, weight, body surface area, body mass index, race, gender, smoking status, serum creatinine levels, serum creatinine clearance, total bilirubin levels, cilansetron dose, and concomitant medication usage. Some efficacy and safety parameters were also evaluated in this population analysis using correlation analyses. Efficacy parameters evaluated included overall relief of IBS symptoms (Responder or Non-Responder), intensity of abdominal pain, number of stools and stool consistency, symptoms of abdominal and rectal discomfort (straining, urgency, feeling of incomplete defecation, passage of mucus, bloating, and feeling of abdominal distension), and upper GI symptoms at Visit 5 (vomiting, heartburn, early satiety, postprandial fullness, sensation of prolonged digestion, and nausea). Safety parameters evaluated included the top ten most frequently observed adverse events (constipation, flatulence, nausea, abdominal pain, headache, dyspepsia, infection, gastrointestinal disorders, anorexia, and diarrhea).
The population analysis included data from 160 patients (63 males and 97 females) with a median age of 45.5 years (range: 20-81 years), median weight of 78 kg (range: 47-121 kg), and median height of 170 cm (range: 147-196 cm). More than 90% of the patients were White and 18.8% of the patients were considered smokers. […] A total of 392 quantifiable concentrations for cilansetron, 393 quantifiable concentrations for (4S)-hydroxy cilansetron, and 397 quantifiable concentrations for (4R)-hydroxy cilansetron from 160 patients were included in the NONMEM datasets for population analyses.
FIG. 54, FIG. 55, and FIG. 56 present mean steady-state plasma concentration-time profiles for cilansetron and its 4-hydroxy metabolites, and Table 2.7.2.3.29 and Table 2.7.2.3.30 present descriptive statistics for the estimated pharmacokinetic parameters of cilansetron and its 4-hydroxy metabolites from the final covariate population pharmacokinetic model. The cilansetron concentration data were best described by a one-compartment model with first-order input, an absorption lag time, and first-order elimination. A log-normal distribution was used to describe the variability of clearance, volume of distribution and absorption rate constant between patients. The residual error was best described by an exponential model. […]

Q: Which AUC(0-inf) ([1]; 2 mg) does the source give for `Cc1nccn1C[C@H]1CCc2c(c3cccc4c3n2CCC4)C1=O` [Cilansetron, (R)-(−)-4,5,6,8,9,10-hexahydro-10-[(2-methyl-1H-imidazol-1-yl)methyl]-11H-pyrido-[3,2,1-jk]-carbazol-11-one] here?
A: The AUC(0-inf) was 22.8 ng·h/mL.

Q: And the AUC(0-t) ([1]; 2 mg)?
A: The AUC(0-t) was 22.4 ng·h/mL.

Q: What about the Cmax ([1]; 2 mg) of the same compound?
A: The Cmax was 8.24 ng/mL.

Q: What about the Tmax ([1]; 2 mg) of the same compound?
A: Its Tmax is 1 h.

Q: What about the half-life ([1]; 2 mg) of the same compound?
A: Its half-life is 1.42 h.

Q: And the AUC(0-inf) ([1]; po, 2 mg)?
A: The AUC(0-inf) was 20.7 ng·h/mL.

Q: And the AUC(0-t) ([1]; po, 2 mg)?
A: Its AUC(0-t) is 20.2 ng·h/mL.

Q: What about the Cmax ([1]; po, 2 mg) of the same compound?
A: Its Cmax is 7.55 ng/mL.

Q: What about the Tmax ([1]; po, 2 mg) of the same compound?
A: The Tmax was 1 h.

Q: And the half-life ([1]; po, 2 mg)?
A: Its half-life is 1.48 h.

Q: And the “Intrasubject % CV for AUC” value ([1]; both)?
A: The value was 19.2%.

Q: What about the “Intrasubject % CV for Cmax” value ([1]; both) of the same compound?
A: Its value is 24.5%.

Q: And the “AUC(0-inf) increase under fed conditions” value ([1]; both, 2 mg)?
A: The value was 20%.

Q: What about the “AUC(0-inf) ratio fed/fasted” value ([1]; both, 2 mg) of the same compound?
A: The value was 121%.

Q: What about the Cmax ratio fed/fasted ([1]; both, 2 mg) of the same compound?
A: The Cmax ratio fed/fasted was 101%.

Q: And the “AUC(0-inf) ratio tablet/oral solution” value ([1]; both, po)?
A: Its value is 99%.

Q: What about the “Cmax ratio tablet/oral solution” value ([1]; both, po) of the same compound?
A: Its value is 108%.

Q: What about the pKi (human 5-HT3 receptor) of the same compound?
A: Its pKi is 9.4.

Q: And the half-life ([2]; 1 mg)?
A: Its half-life is 4.76 h.

Q: What about the half-life ([2]; 2 mg) of the same compound?
A: The half-life was 4.3 h.

Q: What about the half-life ([2]; 8 mg) of the same compound?
A: The half-life was 4.5 h.

Q: And the half-life ([2]; 16 mg)?
A: Its half-life is 4.5 h.

Q: What about the “Apparent oral clearance decrease with concomitant medications” value ([2]; both, po) of the same compound?
A: Its value is 38.6%.

Q: And the “Apparent oral clearance increase in smokers” value ([2]; both, po)?
A: Its value is 32.2%.

Q: What about the “Increase of mean apparent oral clearance in smokers” value ([2]; both, po) of the same compound?
A: The value was “approximately 32%”.

Q: And the CL/F ([2]; 1 mg)?
A: Its CL/F is 28.3 L/h.

Q: And the CL/F ([2]; 2 mg)?
A: Its CL/F is 34.1 L/h.

Q: What about the CL/F ([2]; 8 mg) of the same compound?
A: Its CL/F is 34.2 L/h.

Q: And the CL/F ([2]; 16 mg)?
A: Its CL/F is 37.3 L/h.
